Values after ≈ are worked out from the molar mass of the structure shown. Like-named read-outs stand apart in the source and are kept apart here. Where a SMILES comes first, the peptide text is derived from it. Bridges are numbered along the chain shown (N, C = ends). The star is where a group is joined. Lauroyl = CCCCCCCCCCCC(=O)*; Octanoyl = CCCCCCCC(=O)*
What was measured:
B. subtilis 168 [1] = assay: Bacterial biosensor membrane integrity assay (luciferase, D-luciferin influx); type: cell-based, Bacillus subtilis; conditions: for time of membranolytic action (luminescence peak not detectable): B. subtilis 168, 25 µg/mL and 50 µg/mL
Description: (§1) Changes in light emission of sensor bacteria constitutively expressing the bacterial lux operon or a eukaryotic luciferase can be used as a proxy for viability and membrane integrity, respectively. Light production of the viability biosensors represents metabolic activity of the bacteria. For the membrane integrity assay on the other hand, light production depends on the influx of the externally added D-luciferin, which at neural pH will not readily pass the intact plasma membrane. An initial increase in light production therefore corresponds with damage to the plasma membrane and a concomitant influx of D-luciferin, while a subsequent drop in light emission indicates diminishing ATP reserves of the dying sensor bacteria.
A membrane integrity assay was performed using two bacterial biosensors, B. subtilis 168 (ATCC 23857) and E. coli K12 (ATCC MC1061). Both strains carry the pCSS962 plasmid that contains a eukaryotic luciferase gene (lucGR), which originate from the click beetle Pyrophorus plagiophthalamus. The assay was performed as described previously. […] D-luciferin potassium salt (Synchem Inc., Elk Grove Village, IL, USA) was added to the cell suspension at a final concentration of 1 mM. Two-fold dilutions (final assay concentration of 50–1.56 µg/mL) of peptides dissolved in Milli-Q water were prepared and added (10 µL per well) to black round-bottom 96-well microtiter plates (Nunc). Milli-Q water served as a negative control used for the normalization purpose and CHX, having known membranolytic activity, was used as a positive control. The plates were loaded into a Synergy H1 Hybrid Reader and the background luminescence was monitored before aliquots (90 µL) of the cell suspension with D-luciferin were added, one well at the time, by an automatic injector. Light emission was recorded every second for 3 min. Each study was performed at least three times independently, and the figures show a representative dataset.

[2] = test system: Gram-positive bacterial strains; conditions: Table S3; MIC >256 set to 256
Procedure, shortened: (§2)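 Cultures grown in Mueller–Hinton broth were adjusted by OD600 to 2.5–3 × 10^4 CFU/mL and mixed with two-fold peptide dilutions from 256 to 1 µg/mL. Plates were incubated at 35 °C with OD595 monitored every hour for 24 h.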

E. coli (ATCC 25922) = assay: Bacterial killing experiment (CFU count after MIC assay); type: cell-based, Escherichia coli
Protocol: (§3) A killing experiment was performed on selected lipopeptides by using actively growing cultures of S. aureus (ATCC 9144) and E. coli (ATCC 25922). The procedure was performed as previously described. […] The number of colony-forming units (CFU) was determined after 24 h of incubation at 37 °C. The tests were performed in triplicate.

[3] = test system: human red blood cells (RBC); assay: Haemolytic activity assay; type: cell-based; conditions: for Selectivity index (SI) G- / Selectivity index (SI) G+ / Selectivity index (SI) Fungi: Table S3, highest tested concentration used where EC50 above it; for Selectivity index (SI) G-: EC50/GM of Gram-negative strains; for Selectivity index (SI) G+: EC50/GM of Gram-positive strains; for Selectivity index (SI) Fungi: EC50/GM of fungi; for SI (selectivity index = EC50/GM): haemolytic EC50 over GM of MIC against all bacterial strains, Table 1; for RBC Tox. (EC50), haemolytic activity: human RBC, 1 h, 37 °C, concentration giving 50% haemolysis
Procedure, shortened: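 Washed human erythrocytes (1% hematocrit final) incubated 1 h at 37 °C with agitation with lipopeptides at 500–3.9 μM in PBS (≤1% DMSO), duplicates. Haemoglobin release read at 545 nm relative to 0.1% Triton X-100; EC50 is 50% haemolysis, averaged from three experiments.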

[4] = test system: Gram-negative bacterial strains (E. coli and P. aeruginosa); assay: Antibacterial MIC assay, Gram-negative strains together (range or geometric mean); type: cell-based; conditions: Table S3; MIC >256 set to 256
Procedure, shortened: as §2

B. subtilis 168 [5] = assay: Bacterial biosensor viability assay (lux operon luminescence); type: cell-based, Bacillus subtilis; conditions: B. subtilis 168, increasing concentrations, within 3 min
Description: as §1
Bacterial viability, based on light production by constitutively expressed bacterial luciferase, was measured in real time according to the method described by Hansen et al.. The assay was performed using B. subtilis 168 with chromosomally integrated luxABCDE operon and E. coli K12 carrying the plasmid pCGLS-11 containing the luxCDABE operon. […] No D-luciferin was added to the cell suspension. Each assay was performed at least three times independently, and the figures show a representative dataset.

E. coli (Ec, ATCC 25922) = assay: microbe, parasite or virus in culture; type: cell-based, Escherichia coli; conditions: for MIC: Escherichia coli, ATCC25922
Procedure, shortened: as §2

S. aureus (ATCC 9144) = assay: Bacterial killing experiment (CFU count after MIC assay); type: cell-based, Staphylococcus aureus
Protocol: as §3

[6] = at half-MIC, compared to growth control

SMILES	time of membranolytic action (luminescence peak not detectable) (B. subtilis 168 [1])	effect on membrane integrity (B. subtilis 168 [1]; B. subtilis 168, within 3 min)	GM of MIC G+ [2]	colony-forming units (CFU) after treatment (E. coli (ATCC 25922); at MIC (or above), 24 h)	colony-forming units (CFU) after treatment (E. coli (ATCC 25922); [6])	Selectivity index (SI) G- [3]	Selectivity index (SI) G+ [3]	Selectivity index (SI) Fungi [3]	SI (selectivity index = EC50/GM) [3]	RBC Tox. (EC50), haemolytic activity [3]	GM of MIC G- [4]	effect on viability (light emission) (B. subtilis 168 [5])	MIC E. coli ATCC 25922 (from Table 1) (E. coli (Ec, ATCC 25922); ATCC 25922, 2 h)	Antimicrobial Activity (MIC) Gram − Ec (E. coli (Ec, ATCC 25922); ATCC 25922, 24 h)	colony-forming units (CFU) after treatment (S. aureus (ATCC 9144); at MIC (or above), 24 h)	colony-forming units (CFU) after treatment (S. aureus (ATCC 9144); [6])	MIC (E. coli (Ec, ATCC 25922); E. coli ATCC 25922, 24 h, read-out: Antimicrobial Activity (MIC) Gram − Ec)	MIC (E. coli (Ec, ATCC 25922); Table 2, laboratory strain, read-out: MIC E. coli ATCC 25922 (from Table 1))
CCCCCCCCCCCC(=O)N[C@H]1CSSC[C@@H](C(=O)N[C@@H](CCCCN)C(=O)N[C@@H](CC(C)C)C(N)=O)NC(=O)[C@H](CCCCN)NC(=O)[C@H](Cc2c[nH]c3ccccc23)NC(=O)CNC(=O)CNC(=O)[C@@H]2CCCN2C(=O)[C@H](CCCCN)NC(=O)[C@H](CCCCN)NC(=O)CNC1=O [Peptide C12-cTurg-1, C12 -(CGKKPGGWKC)KL-NH2] (Lauroyl-CGKKPGGWKCKL-NH2; disulfide 1-10)	< 3 s	rapid and strong membrane disruptive effect	3 µg/mL	No CFU were observed	slightly less colony-forming units (CFU) were formed	27	77	11	55	219 µg/mL	8 µg/mL	dose-dependent effect on viability	2 to 4 µg/mL	4 µg/mL	No CFU were observed	slightly less colony-forming units (CFU) were formed		
CCCCCCCC(=O)N[C@H]1CSSC[C@@H](C(=O)N[C@@H](CCCCN)C(=O)N[C@@H](CC(C)C)C(N)=O)NC(=O)[C@H](CCCCN)NC(=O)[C@H](Cc2c[nH]c3ccccc23)NC(=O)CNC(=O)[C@H](Cc2c[nH]c3ccccc23)NC(=O)[C@H](Cc2c[nH]c3ccccc23)NC(=O)[C@H](CCCCN)NC(=O)[C@H](CCCCN)NC(=O)CNC1=O [Peptide C8-cTurg-2, C8- (CGKKWWGWKC)KL-NH2] (Octanoyl-CGKKWWGWKCKL-NH2; disulfide 1-10)	< 3 s		3 µg/mL	No CFU were observed	slightly less colony-forming units (CFU) were formed	78	155	35	123	439 µg/mL	6 µg/mL	dose-dependent effect on viability			No CFU were observed	slightly less colony-forming units (CFU) were formed		
[H]/N=C(\N/C(=N/[H])NCCCCCCNC(=N)NC(=N)Nc1ccc(Cl)cc1)Nc1ccc(Cl)cc1 [Chlorhexidine, reference compound]																	1.6 µg/mL (≈ 3.17 µM)	1.6 µg/mL (≈ 3.17 µM)

From publication PMC9696794, “Synthesis and Antimicrobial Activity of Short Analogues of the Marine Antimicrobial Peptide Turgencin A: Effects of SAR Optimizations, Cys-Cys Cyclization and Lipopeptide Modifications” (International Journal of Molecular Sciences, 2022)
